Laboratory results published in ChEMBL document CHEMBL6115038, “Immunoproteasome as a Target for Prodrugs” (J Med Chem, 2025).
Each block holds one molecule with its values, some of them ahead of it. The source made the active and inactive calls. The rule behind the calls is not given here. Peptide text beside a SMILES is read from it. * marks the point of attachment. Doxorubicin(3'-N) = COc1cccc2c1C(=O)c1c(O)c3c(c(O)c1C2=O)C[C@@](O)(C(=O)CO)C[C@@H]3O[C@H]1C[C@H](N*)[C@H](O)[C@H](C)O1; Morpholinoacetyl = O=C(CN1CCOCC1)*

Experiments:
Ramos [1] = test: Cytotoxicity against human Ramos cells assessed as cell viability incubated for 24 hrs by celltiter-glo assay; format: functional, cell-based
[2] = target: T1, von Hippel-Lindau disease tumor suppressor/Bromodomain-containing protein 4 (Homo sapiens) (UniProt O60885+P40337); test: PROTAC activity at BRD4/VHL in human Ramos cells expressing iCP assessed as induction of BRD4 degradation at 1 nM compound administered as prodrug-PROTAC incubated for 18 hrs by immunoblotting analysis; format: cell-based
[3] = Cytotoxicity against human AC16 [Human hybrid] cells assessed as cell viability incubated for 72 hrs by celltiter-glo assay; format: toxicity, cell-based
20S proteasome [4] = test: Prodrug release in tris HCL buffer assessed as human 20S immunoproteasome-mediated hydrolysis by measuring Dox release measured upto 8 hrs by mass spectrometry analysis; format: ADME, protein-complex assay
20S proteasome [5] = test: Prodrug release in tris HCL buffer at pH 7.4 assessed as human 20S immunoproteasome mediated hydrolysis by measuring Dox release at 10 uM incubated for 90 mins in presence of PA28alpha/beta activated complex by fluorescence based analysis; format: ADME, protein-complex assay; conditions: pH 7.4, 1.5 h
20S proteasome [6] = test: Prodrug release in tris HCL buffer at pH 7.4 assessed as human 20S immunoproteasome mediated hydrolysis by measuring Dox release at 10 uM incubated for 4 hrs in presence of PA28alpha/beta activated complex by mass spectrometry analysis; format: ADME, protein-complex assay; conditions: pH 7.4, 4 h
[7] = target: T1, von Hippel-Lindau disease tumor suppressor/Bromodomain-containing protein 4 (Homo sapiens); test: PROTAC activity at BRD4/VHL in human Ramos cells expressing iCP assessed as induction of BRD4 degradation at 100 nM compound administered as prodrug-PROTAC incubated for 18 hrs in presence of ONX-0914 by immunoblotting analysis; format: cell-based
[8] = Cytotoxicity against human AC16 [Human hybrid] cells expressing iCP assessed as cell viability incubated for 24 hrs by celltiter-glo assay; format: toxicity, cell-based
20S proteasome [9] = test: Prodrug release in tris HCL buffer at pH 7.4 assessed as human 20S immunoproteasome mediated hydrolysis by measuring Dox release at 10 uM incubated for 4 hrs in presence of 37.5 to 75 nM of PA28alpha/beta activated complex by mass spectrometry analysis; format: ADME, protein-complex assay; conditions: pH 7.4, 4 h
[10] = Prodrug release in tris HCL buffer assessed as human 20S proteasome core particle-mediated hydrolysis by measuring Dox release measured for 4 hrs by mass spectrometry analysis; format: ADME
[11] = Prodrug release in tris HCL buffer assessed as human 20S proteasome core particle-mediated hydrolysis by measuring Dox release measured for 4 hrs in presence of PA28alpha/beta activated complex by mass spectrometry analysis; format: ADME
[12] = Cytotoxicity against human AC16 [Human hybrid] cells assessed as cell viability at 10 uM incubated for 72 hrs by celltiter-glo assay relative to control; format: toxicity, cell-based; conditions: read-out: Activity
[13] = Stability in human serum incubated for 1 hr by mass spectrometry analysis; format: ADME, cell-free
[14] = Cytotoxicity against human AC16 [Human hybrid] cells assessed as cell viability at 20 uM incubated for 72 hrs by celltiter-glo assay relative to control; format: toxicity, cell-based; conditions: read-out: Activity
Ramos [15] = test: Cytotoxicity against human Ramos cells assessed as cell viability incubated for 72 hrs by celltiter-glo assay; format: functional, cell-based
Raji = test: Cytotoxicity against human Raji cells assessed as cell viability at 0.0001 to 100 uM incubated for 72 hrs by celltiter-glo assay; format: functional, cell-based; conditions: dose 0.0001-100 µM
MM.1R = test: Cytotoxicity against human MM1.R cells assessed as cell viability at 0.0001 to 100 uM incubated for 72 hrs by celltiter-glo assay; format: functional, cell-based; conditions: dose 0.0001-100 µM

T1 sequence (P40337 whole entry, looked up, other chains not shown): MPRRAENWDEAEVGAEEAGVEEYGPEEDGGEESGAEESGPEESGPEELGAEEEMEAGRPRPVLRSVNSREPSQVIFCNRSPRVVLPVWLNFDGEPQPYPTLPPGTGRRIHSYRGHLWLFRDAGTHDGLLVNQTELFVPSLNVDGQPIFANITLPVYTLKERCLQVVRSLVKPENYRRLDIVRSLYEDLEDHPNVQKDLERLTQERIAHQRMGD

Activity [2]: Active
SMILES: Cc1ncsc1-c1ccc([C@H](C)NC(=O)[C@@H]2C[C@@H](O)CN2C(=O)[C@@H](NC(=O)COCCCOCCNC(=O)C[C@@H]2N=C(c3ccc(Cl)cc3)c3c(sc(C)c3C)-n3c(C)nnc32)C(C)(C)C)cc1
IC50 (Ramos [1]): 10 nM

SMILES: COc1cccc2c1C(=O)c1c(O)c3c(c(O)c1C2=O)C[C@@](O)(C(=O)CO)C[C@@H]3O[C@H]1C[C@H](N)[C@H](O)[C@H](C)O1 [DOXORUBICIN]
IC50 at 72 h [3]: 233 nM

Drug metabolism (20S proteasome [4]): metabolite_detected
Drug metabolism (20S proteasome [5]): metabolite_detected
Drug metabolism (20S proteasome [6]): metabolite_detected
SMILES: COc1cccc2c1C(=O)c1c(O)c3c(c(O)c1C2=O)C[C@@](O)(C(=O)CO)C[C@@H]3O[C@H]1C[C@H](NC(=O)[C@H](Cc2c[nH]c3ccccc23)NC(=O)[C@H](CCSC)NC(=O)[C@@H](NC(=O)[C@H](C)NC(C)=O)[C@@H](C)O)[C@H](O)[C@H](C)O1 (Ac-ATMW-{Doxorubicin(3'-N)})

SMILES: CSCC[C@H](NC(=O)[C@@H](NC(=O)[C@H](C)NC(=O)CN1CCOCC1)[C@@H](C)O)C(=O)N[C@@H](Cc1c[nH]c2ccccc12)C(=O)Nc1ccc(COC(=O)O[C@H]2C[C@H](C(=O)N[C@@H](C)c3ccc(-c4scnc4C)cc3)N(C(=O)[C@@H](NC(=O)COCCCOCCNC(=O)C[C@@H]3N=C(c4ccc(Cl)cc4)c4c(sc(C)c4C)-n4c(C)nnc43)C(C)(C)C)C2)cc1
IC50 (Ramos [1]): 10 nM
Activity [2]: Active
Activity [7]: inactive
Activity [8]: Toxic

Drug metabolism (20S proteasome [4]): metabolite_detected
Drug metabolism (20S proteasome [9]): metabolite_notdetected
SMILES: COc1cccc2c1C(=O)c1c(O)c3c(c(O)c1C2=O)C[C@@](O)(C(=O)CO)C[C@@H]3O[C@H]1C[C@H](NC(=O)[C@H](C)NC(=O)[C@H](C)NC(=O)[C@H](C)NC(=O)[C@H](C)NC(C)=O)[C@H](O)[C@H](C)O1 (Ac-AAAA-{Doxorubicin(3'-N)})

Drug metabolism (20S proteasome [4]): metabolite_detected
Drug metabolism (20S proteasome [9]): metabolite_notdetected
Drug metabolism [10]: metabolite_notdetected
Drug metabolism [11]: metabolite_detected
SMILES: COc1cccc2c1C(=O)c1c(O)c3c(c(O)c1C2=O)C[C@@](O)(C(=O)CO)C[C@@H]3O[C@H]1C[C@H](NC(=O)[C@H](Cc2ccc(O)cc2)NC(=O)[C@@H](NC(=O)[C@H](CC(C)C)NC(=O)[C@H](CC(C)C)NC(C)=O)C(C)C)[C@H](O)[C@H](C)O1 (Ac-LLVY-{Doxorubicin(3'-N)})

SMILES: COc1cccc2c1C(=O)c1c(O)c3c(c(O)c1C2=O)C[C@@](O)(C(=O)CO)C[C@@H]3O[C@H]1C[C@H](NC(C)=O)[C@H](O)[C@H](C)O1
viability at 72 h, 10 µM [12]: > 90%

Stability [13]: Stable
SMILES: COc1cccc2c1C(=O)c1c(O)c3c(c(O)c1C2=O)C[C@@](O)(C(=O)CO)C[C@@H]3O[C@H]1C[C@H](NC(=O)[C@H](Cc2c[nH]c3ccccc23)NC(=O)[C@H](CCSC)NC(=O)[C@@H](NC(=O)[C@H](C)NC(=O)CN2CCOCC2)[C@@H](C)O)[C@H](O)[C@H](C)O1 (Morpholinoacetyl-ATMW-{Doxorubicin(3'-N)})
viability at 72 h, 20 µM [14]: > 80%
IC50 (Ramos [15]): 5.5 µM
Activity (Raji): Active
Activity (MM.1R): Active
